According to publication PMC6591174, “The beneficial androgenic action of steroidal aromatase inactivators in estrogen-dependent breast cancer after failure of nonsteroidal drugs” (Cell Death & Disease, 2019):

Columns and labels:
[1] = tested on: MCF-7 cells; test: Cell proliferation assay (CCK8), MCF-7; type: cell-based, human; details: for proliferation of MCF-7 cells: 1 nM-10 μM, 6 days, 10% PRF-CT with 1 nM E2; for antiproliferative effect in presence of OH-Flutamide, MCF-7: 100 nM compound with 100 nM OH-Flutamide
Procedure: Fig. 2 Proliferative response of cancer cells to indicated compounds. a–c the effect of concentrations of different compounds on the growth of the cells. […] Cell growth was measured as described in the “Materials and methods”. The proliferation of cells is expressed as the ratio of the cells compared with the control wells (untreated cells). d, e Influence of different compounds on the cell cycle of MCF-7 cells. MCF-7 cells were cultured in 10% PRF-CT with E2 (1 nM) for 3 days before plating. Cells were seeded in six-well plates and, the next day, starved in PRF for 24 h. Cells were exposed to different compounds at a concentration of 100 nM for 72 h, and then subjected to cell-cycle analysis as described in “Materials and methods”. f MCF-7 cells on poly-L-lysine-coated glass coverslips were exposed to compounds (100 nM) in 10% PRF-CT with 1 nM E2 for 72 h. Control cells were treated with vehicle. DAPI stains DNA, and the secondary anti-mouse antibody to detect the antibody bound to Ki-67 is labeled with the cyanine dye Cy3. The cells were stained with DAPI (blue). Immunofluorescence staining of Ki-67 of cells was observed using fluorescence microscope. Red: Ki-67; blue: nucleus.Typical image is shown. Scale bars: 10 μm. Data represent a mean ± SEM of three independent experiments, each in triplicate; bars, SEM. *P ≤ 0.05 vs. control
After 24 h, cells were exposed for 3–6 days to various concentrations of compounds (1 nM– 10 μM) or left untreated. The incubation time and the compounds concentrations were chosen based on previous studies[17],[32]–[34]. The effects of the various drugs on cell proliferation at the indicated concentrations (1 nM– 10 μM) were determined by using a CCK8 kit (Dojindo Laboratories, Kumamoto, Japan) according to the manufacturer’s protocol. The absorbance at 450 nm was measured by using a Versamax microplate reader (Thermo Varioskan Flash, USA). Cell growth is expressed as the ratio of the cells compared with the control wells (untreated cells).

[2] = tested on: CCND1 promoter in MCF-7 cells; test: ChIP-qPCR on the CCND1 promoter; type: cell-based, human; details: 10^-7 M, 2 h
Procedure: Fig. 7 The effect of activated AR on CCND1 expression by changing histone modifications of its promoter. The experimental protocol was as described in “Materials and methods”. a and b The expression of the cyclin D1 protein. Blots were also probed for tubulin (bottom) to verify equal amounts of protein loaded in each lane. The densitometric evaluation is calculated by ImageJ. c The abundance of cyclin D1 mRNA has been detected by real-time reverse transcription-PCR, as described in “Materials and methods”. d–h MCF-7 cells were grown in 10 cm dishes. Confluent cultures (80%) were shifted to PRF for 24 h and then treated with indicated compounds at a concentration of 10^−7 M or left untreated in PRF-CT for 2 h. ChIPs were carried out on serum starved MCF-7 cells as described in “Materials and methods”. Cells were lysed and proteins were precipitated using antibodies against AR (d), H3K4me3 (e), H3K9me3 (f), H3K9ac (g), H3K27ac (h) or rabbit IgG (2 μg/sample each). In control samples (Ig), normal rabbit IgG was used instead of the primary antibodies as control of antibody specificity. Inputs DNA were amplified as loading controls. Five regions of CCND1 promoter were examined by quantitative PCR analysis. The region containing the ARE site was detected by PCR with specific primers (p1-ARE) for antibodies of AR and H3K4me3. Specific primers P4 and p5 were used to investigate the changes in methylation or acetylation of H3K9.
MCF-7 cells were grown in 10 cm dishes. Confluent cultures (80%) were shifted to PRF for 24 h and then treated with various drugs at a concentration of 10^–7 M (as shown in Fig. 8) or left untreated in 5% PRF-CT for 2 h. Following treatment, ChIP assay was performed as described by Morelli et al. and using a simple Chip plus Sonication Chromatin IP kit (Cell Signaling Technology, #56383), following the manufacturer’s protocol. The cells were sonicated 10 times for 10 s at 20% of maximal power (Fisher Sonic Dismembrator) and then treated according to the protocol. Anti-AR (Cat. No. 5153), anti-H3K4me3 (Cat. No. 9751), anti-H3K9me3 (Cat. No. 13969), anti-H3K9ace (Cat. No. 9649), anti-H3K27ace (Cat. No. 8173) or rabbit IgG (Cat. No. 3900) of Cell Signaling Technology antibody were used to precipitate chromatin fragments from cell extracts. We used real-time quantitative PCR (SYBR green) to amplify the DNA fragment in the antibody precipitated DNA and the unprecipitated input DNA to calculate ΔCT values. A specific primer pair was used to amplify 134 bp of the ARE-containing cyclin D1 promoter fragment. For the histone modification antibody, another four pairs of prime locating at 1000 to −2000 bp region from the transcription initiation site of CCND1 were used besides the prime containing ARE. The RQ values (RQ = 2^–ΔCT) are presented and reflect the precipitated DNA as a percentage of the input DNA.

[3] = tested on: DMBA-induced mammary carcinoma; test: DMBA-induced mammary carcinoma, topical treatment; type: in vivo, female Sprague-Dawley rats; details: cream 2.5% topically twice daily; for tumor growth: 4 weeks, ovariectomized rats given E2 1 μg/rat daily; for average tumor number after 28 days of treatment: 1.2 ± 0.15 at the beginning, control 4.3 ± 1.2
Procedure: Fig. 8 The effects of sterols on the DMBA-induced mammary carcinoma in rats. At an age of 50–54 days, female Sprague-Dawley rats were dosed intragastrically with 20 mg DMBA. when at least one tumor measuring 1 cm in diameter was found, the rats were ovariectomized and given intramuscular 1 μg/rat E2 daily. Animals were selected for experiments when at least one tumor per rat had reached a diameter of 1.5 cm. The skin covering the tumor was shaved and animals were divided into four groups. […] Untreated tumors served as controls. a Representative images of the tumors. b Tumor growth curve. c Average number of tumor nodules before and after treatment.The data represent six sets of independent experiments and are shown as the means ± SD. *P < 0.05, **P ≤ 0.01 vs. control group
At an age of 50–54 days, female Sprague-Dawley rats were dosed intragastrically with 20 mg DMBA (Sigma Chemical Co.) dissolved in peanut oil (1 ml/rat). Starting at 40 days after DMBA treatment, animals were examined weekly by palpation; when at least one tumor measuring 1 cm in diameter was found, the rats were ovariectomized using ether anesthesia and were given E2 (1 μg/rat) by daily intramuscular injection. Animals were selected for experiments when at least one tumor per rat had reached a diameter of 1.5 cm. Tumors were measured with calipers once a week, and their volume was calculated according to the following formula: volume = length × (width)^2 × 0.5. Rats were then divided into four groups of six animals each. […] All creams were applied for 4 weeks. […] Tumor growth in the control and treated groups was expressed as a value relative to the initial tumor volume, measured on the 1st day of treatment and taken as 1. At the beginning and end of the treatment period, the number of tumor nodules was counted.

| SMILES | proliferation of MCF-7 cells [1] | antiproliferative effect in presence of OH-Flutamide, MCF-7 [1] | AR binding to ARE site of CCND1-promoter [2] | tumor growth [3] | average tumor number after 28 days of treatment [3] [tumors per rat] | H3K4me3 at CCND1 promoter, relative to untreated control cells [2] [%] | H3K9ac at CCND1 promoter [2] | H3K9me3 at CCND1 promoter [2] | H3K27ac at CCND1 promoter [2] | appearance of new tumors at end of treatment ([3]; 28 days, vs control) |
| --- | --- | --- | --- | --- | --- | --- | --- | --- | --- | --- |
| C[C@]12CCC(=O)C[C@@H]1CC[C@@H]1[C@@H]2CC[C@]2(C)[C@@H](O)CC[C@@H]12 [DHT, dihydrotestosterone] | inhibits the proliferation of MCF-7 and ZR-75-1 cells at all tested concentrations | almost completely abolished | strong increase | growth arrest | 2.25 ± 0.8 | – | – | – | – | – |
| C=C1C[C@H]2[C@@H]3CC[C@H](O)[C@@]3(C)CC[C@@H]2[C@@]2(C)C=CC(=O)C=C12 [17-HEXE, 17-hydroexemestane] | – | behave like DHT | almost as strong as that of DHT | growth arrest | 2.85 ± 0.68 | < 20 | decreased | increased | unchanged | – |
| C[C@]12CC[C@H]3[C@@H](CCC4=C(O)C(=O)CC[C@@]43C)[C@@H]1CC[C@@H]2O [4-OHT, 4-hydroxytestosterone] | strongly antiproliferative | behave like DHT | almost as strong as that of DHT | shrinkage of the tumor | 1.6 ± 0.4 | < 20 | decreased | increased | unchanged | almost did not develop new tumors |
